Test results reported in US20230095980A1, “Sodium 2-[(4S)-8-fluoro-2-[4-(3-methoxyphenyl)piperazin-1-yl]-3-[2-methoxy-5-(trifluoromethyl)phenyl]-4H-quinazolin-4-yl]acetate and pharmaceutical compositions thereof” (AIC246 AG & Co. KG, priority 2020, published 2023).

What was measured:
[1] = intravenous formulation in neonates; cited from earlier work
[2] = Excipient-free formulation: reconstitution with water for injection and dilution in infusion bags; format: physicochemical
Experimental: 0.3164 g of letermovir sodium trihydrate salt was directly weighed into a washed, sterilized and dried 20R glass vial. […] Six vials were prepared accordingly. The vials were stoppered and crimp capped.
14 ml of water for injection were added to each 20R vial containing 280 mg of Letermovir free base resulting in concentration of 20 mg/ml. Water for injection was added after removal of the flip-off disk from the vial by using a 20-ml disposable syringe plus a 20G needle of 40 mm length.
The content of the vial was carefully homogenized by gentle manual rotation. In parallel, 2 empty infusion bags were filled with 288 ml of each parenteral admixture diluents (Ringer's lactate, 0.9% saline solution and 5% dextrose solution, respectively) by using a 50-ml syringe and a Mini-Spike. 12 ml of the content of the vial was withdrawn by using a 20-ml disposable syringe plus a 20G needle of 40 mm length. The total volume of 12 ml was directly injected into the diluent containing infusion bag. After the injection, the content of the bag was carefully homogenized by gentle manual rotation. Two independent preparations of each diluent were used, i.e., in total 6 infusion bags were prepared. Following, the prepared infusion bags were put on storage at room temperature (protected from light) and another sample was analyzed after 24 hours (T24 h).

SMILES	PDE (permissible daily exposure) [1]	pH ([2]; other two diluents (0.9% saline solution, 5% dextrose solution))	precipitation based on visual inspection ([2]; over 24 hours at room temperature, Ringer's lactate, 0.9% saline, 5% dextrose)	pH ([2]; solution reconstituted with Ringer's lactate, no pH adjustment)
OC[C@@H](O)[C@@H](O)[C@H](O)[C@H](O)CO [Mannitol]	75 mg/day	–	–	–
OC[C@H]1O[C@@H](O[C@H]2[C@H](O)[C@@H](O)C(O)O[C@@H]2CO)[C@H](O)[C@@H](O)[C@H]1O (stereo partly drawn) [Lactose]	5.7 mg/day	–	–	–
COc1cccc(N2CCN(C3=Nc4c(F)cccc4[C@H](CC(=O)[O-])N3c3cc(C(F)(F)F)ccc3OC)CC2)c1.[Na+] [letermovir sodium trihydrate salt, Sodium 2-[(4S)-8-fluoro-2-[4-(3-methoxyphenyl)piperazin-1-yl]-3-[2-methoxy-5-(trifluoromethyl)phenyl]-4H-quinazolin-4-yl]acetate]	–	8.0	None of the reconstituted formulations precipitated	7.8
OC[C@H]1O[C@H](O[C@H]2O[C@H](CO)[C@@H](O)[C@H](O)[C@H]2O)[C@H](O)[C@@H](O)[C@@H]1O [Trehalose]	25.8 mg/day	–	–	–
